Assays:
Format in all cases: in vivo
[1] = tested on: Oleoylethanolamide synthase (OEA synthase); experiment: Real-time PCR gene expression in peripheral tissues: OEA synthase; settings: proximal intestine; C57bl6j mice, high fat diet, 100 mg/kg/body weight in diet, 5 weeks
Procedure: (§1) The expression of 45 genes was measured by real-time PCR in peripheral tissues to identify genes that were differentially expressed in response to oral administration of oleoylethanolamide (OEA) or a non-hydrolysable OEA analog (KDS 5104), which affect satiety, lipid metabolism, fat utilization, food intake, and body fat mass.
(§2) Animals, diet, and experimental design. Adult male C57bl6j mice purchased at 8 weeks of age were individually housed and maintained ad libitum on high fat diet and water for 2 weeks. Seven mice were randomly allocated in 3 groups and fed with a high fat diet (lipids represented 50% of daily energy) for 2 weeks. […]
(§3) RNA extraction and gene expression. […] The RNA concentration was determined on nanodrop from the absorbance at 260 nm. […] Real-time quantitative PCR (RT-qPCR) were performed on cDNA obtained as described above using a high through put system (Biomek 3000, Beckman & Coulter, Fullerton, USA) and a Lightcycler 480 (Roche/Hitachi, Basel, Switzerland) with SYBR Green Master mix+kit (Eurogentec, Philadelphia, USA). […] Values were expressed as ratio of RNA levels relative to control mice (diets with 0 mg of OEA/kg/body weight) using ΔΔ(Ct) (Livak K J & Schmittgen T D, 2001, Methods 25:402-8). Gene expression of the following genes was measured (abbreviation and GenBank Accession shown in parentheses). […]

[2] = tested on: Glucose 6-phosphatase (G6P); experiment: Real-time PCR gene expression in peripheral tissues: G6P; settings: liver; C57bl6j mice, high fat diet, 100 mg/kg/body weight in diet, 5 weeks
Procedure: as §1, §2, §3

Cholescystokinin (CCK) = experiment: Real-time PCR gene expression in peripheral tissues: CCK; settings: proximal intestine; C57bl6j mice, high fat diet, 100 mg/kg/body weight in diet, 5 weeks
Procedure: as §1, §2, §3

Ghrelin = experiment: Real-time PCR gene expression in peripheral tissues: ghrelin; settings: stomach; C57bl6j mice, high fat diet, 100 mg/kg/body weight in diet, 5 weeks
Procedure: as §1, §2, §3

[3] = tested on: Sterol regulatory element binding protein-C 2 (SREBP2 1); experiment: Real-time PCR gene expression in peripheral tissues: SREBP2; settings: liver; C57bl6j mice, high fat diet, 100 mg/kg/body weight in diet, 5 weeks
Procedure: as §1, §2, §3

Adiponectin = experiment: Real-time PCR gene expression in peripheral tissues: adiponectin; settings: C57bl6j mice, high fat diet, 100 mg/kg/body weight in diet, 5 weeks
Procedure: as §1
(§4) Animals, diet, and experimental design. Adult male C57bl6j mice purchased at 8 weeks of age were individually housed and maintained ad libitum on high fat diet and water for 2 weeks. Seven mice were randomly allocated in 3 groups and fed with a high fat diet (lipids represented 50% of daily energy) for 2 weeks. For one kilogram, the composition of the high fat diet was: 235 g casein, 201 g saccharose, 3.5 g L-cystine, 85 g starch, 116 g maltodextrin, 60 g cellulose, 12 g vitamins mix (AIN-93M, UPAE, Jouy-en-Josas, France), 51.5 g mineral mix (AIN-93Vx, UPAE, Jouy-en-Josas, France), and 236 g lard. Then, either OEA or KDS 5104 was added to the diet at a concentration of 100 mg/kg/body weight. The mice were kept under treatment for 5 weeks.
(§5) Sampling. At the end of the experimental period, mice were sacrificed by blood drawing (cardiac puncture) after anesthesia with isoflurane. Plasma was obtained by centrifugation (1,000 g for 10 min at 4° C.). Mesenteric, epididymal, inguinal and peritoneal adipose depots, as well as liver, stomach, small intestine mucosa, pancreas, and gastrocnemian muscle were removed and frozen into liquid nitrogen. Plasma, urine, feces, and organ samples were kept at −80° C. until analysis.
RNA extraction and gene expression. Total RNA from liver, intestine mucous membrane, adipose tissues, gastrocnemian muscle, pancreas and stomach were extracted with TRIzol reagent (Invitrogen, Carlsbad, USA) according to the manufacturer's instruction. The RNA concentration was determined on nanodrop from the absorbance at 260 nm. […] Real-time quantitative PCR (RT-qPCR) were performed on cDNA obtained as described above using a high through put system (Biomek 3000, Beckman & Coulter, Fullerton, USA) and a Lightcycler 480 (Roche/Hitachi, Basel, Switzerland) with SYBR Green Master mix+kit (Eurogentec, Philadelphia, USA). […] Values were expressed as ratio of RNA levels relative to control mice (diets with 0 mg of OEA/kg/body weight) using ΔΔ(Ct) (Livak K J & Schmittgen T D, 2001, Methods 25:402-8). Gene expression of the following genes was measured (abbreviation and GenBank Accession shown in parentheses).
Statistical analysis. […] Daily food intake was analyzed using two-way ANOVA on Statview software. […] For statistical analysis of the gene expression data, values were calculated relative to 18S expression for each mouse and gene.

[4] = tested on: N-acylsphingosine amidohydrolase-like (NAAA); experiment: Real-time PCR gene expression in peripheral tissues: NAAA; settings: C57bl6j mice, high fat diet, 100 mg/kg/body weight in diet, 5 weeks
Procedure: as §1, §4, §5
(§6) RNA extraction and gene expression. Total RNA from liver, intestine mucous membrane, adipose tissues, gastrocnemian muscle, pancreas and stomach were extracted with TRIzol reagent (Invitrogen, Carlsbad, USA) according to the manufacturer's instruction. The RNA concentration was determined on nanodrop from the absorbance at 260 nm. Retro-transcription PCRs to synthesize cDNA were performed using an Applied Biosystem Thermal Cycler 2720 and Superscript II (Invitrogen, Carlsbad, USA) according to manufacturer's protocol. Real-time quantitative PCR (RT-qPCR) were performed on cDNA obtained as described above using a high through put system (Biomek 3000, Beckman & Coulter, Fullerton, USA) and a Lightcycler 480 (Roche/Hitachi, Basel, Switzerland) with SYBR Green Master mix+kit (Eurogentec, Philadelphia, USA). Primers for the selected genes were generated using online informatics assistance from the Lightcycler manufacturer (Roche). Databases used to identify the genes were (1) the NCBI database (GenBank) and (2) the IHOP (Information Hyperlinked over Protein) database (www.ihop-net.org/UniPub/iHOP/bng/). Values were expressed as ratio of RNA levels relative to control mice (diets with 0 mg of OEA/kg/body weight) using ΔΔ(Ct) (Livak K J & Schmittgen T D, 2001, Methods 25:402-8). Gene expression of the following genes was measured (abbreviation and GenBank Accession shown in parentheses).
(§7) Statistical analysis. […] Statistical analysis of physiological parameters and gene expression data was performed by one-way ANOVA on Statview software (SAS Institute, Cary, USA). Daily food intake was analyzed using two-way ANOVA on Statview software. Statistical significance was set up at the P<0.05 level, the P<0.01 level and the P<0.001 level. For statistical analysis of the gene expression data, values were calculated relative to 18S expression for each mouse and gene.

[5] = tested on: Fasting induced adipocyte factor (Fiaf); experiment: Real-time PCR gene expression in peripheral tissues: Fiaf; settings: C57bl6j mice, high fat diet, 100 mg/kg/body weight in diet, 5 weeks
Procedure: as §1, §4, §5, §6, §7

[6] = Chronic oral OEA in high fat diet: food intake; settings: C3H mice, 4 weeks
Source text: The physiological and biochemical effects of chronic oral OEA administration were investigated. Mice were chronically fed with OEA, provided as a supplement during 4 weeks, to study the effect on body weight gain and cumulative food intake, among other parameters.
Animals, diet and experimental design. Adult male C3H mice purchased at 8 weeks of age were individually housed and maintained ad libitum on different diets and water for 2 weeks. Seven mice were allocated in 3 groups by randomization by weight, and fed with a high fat diet (lipids represented 50% of daily energy) during 2 weeks. The composition of the high fat diet per kg was: 284.5 g of corn starch, 89.5 g of saccharose, 250 g of casein, 50 g of cellulose, 10 g of a mix of vitamins (V1001), 35 g of a mix of minerals (S10026) and 281 g of canola oil (UPAE, Jouy en Josas, France). Then, OEA was added to the diets at different levels to provide 0, 10, or 100 mg OEA/kg body weight. The mice were kept on each respective diet for 4 weeks. During the nutritional intervention, daily food intake was monitored and the mice were weighed 3 times a week.
Statistical analysis. Results were determined as mean±standard error of the mean (SEM). Statistical analysis of physiological parameters was performed by one-way ANOVA on Statview software (SAS institute, Cary, USA). Statistical significance was set up at the P<0.05 level.

[7] = tested on: Fatty acid transporter/cluster of differentiation 36 (FAT/CD 36); experiment: Real-time PCR gene expression in peripheral tissues: FAT/CD36; settings: C57bl6j mice, high fat diet, 100 mg/kg/body weight in diet, 5 weeks
Procedure: as §1, §4, §5, §6
Statistical analysis. Results are presented as means±standard error of the means (SEM). Statistical analysis of physiological parameters and gene expression data was performed by one-way ANOVA on Statview software (SAS Institute, Cary, USA). Daily food intake was analyzed using two-way ANOVA on Statview software. Statistical significance was set up at the P<0.05 level, the P<0.01 level and the P<0.001 level. For statistical analysis of the gene expression data, values were calculated relative to 18S expression for each mouse and gene.

Structure (SMILES): CCCCCCCC/C=C\CCCCCCCC(=O)NCCO [OEA, N-oleoyl-ethanolamide]
- OEA synthase i, ratio of RNA levels relative to control mice [1]: −1.38
- G6P l, ratio of RNA levels relative to control mice [2]: 1.29
- CCK i, ratio of RNA levels relative to control mice (Cholescystokinin (CCK)): 1.57
- ghrelin s, ratio of RNA levels relative to control mice (Ghrelin): 1.98
- SREBP2 l, ratio of RNA levels relative to control mice [3]: 1.22
- adiponectin at ep, ratio of RNA levels relative to control mice (Adiponectin; epidydimal adipose tissue): −1.14
- adiponectin at per, ratio of RNA levels relative to control mice (Adiponectin; peritoneal adipose tissue): −2.08
- NAAA at ep, ratio of RNA levels relative to control mice ([4]; epidydimal adipose tissue): 1.36
- NAAA at per, ratio of RNA levels relative to control mice ([4]; peritoneal adipose tissue): 1.03
- NAAA i, ratio of RNA levels relative to control mice ([4]; proximal intestine): 1.85
- Fiaf at ep, ratio of RNA levels relative to control mice ([5]; epidydimal adipose tissue): −1.41
- Fiaf at per, ratio of RNA levels relative to control mice ([5]; peritoneal adipose tissue): −2.42
- Fiaf i, ratio of RNA levels relative to control mice ([5]; proximal intestine): 1.15
- Dose dependence of the effect on food intake ([6]; 10 vs 100 mg/kg body weight): not dose dependent
- Food intake, change in mice consuming OEA ([6]; high fat diet, OEA 10 or 100 mg/kg body weight in diet, P<0.05): −6.5%
- FAT/CD36 at ep, ratio of RNA levels relative to control mice ([7]; epidydimal adipose tissue): −1.88
- FAT/CD36 l, ratio of RNA levels relative to control mice ([7]; liver): 1.45
- FAT/CD36 at per, ratio of RNA levels relative to control mice ([7]; peritoneal adipose tissue): −1.81
- FAT/CD36 i, ratio of RNA levels relative to control mice ([7]; proximal intestine): 1.61

Source: patent US8742082B2, “Compositions and methods for influencing satiety, lipid metabolism, and fat utilization” (Nestec S.A., priority 2008, dated 2014)
